Measurements as given in patent US20240238459A1, “Granzyme-Activatable Membrane-Interacting Peptides and Methods of Use” (priority 2021, published 2024).
Peptide text beside a SMILES is read from it. * marks the point of attachment. DOTA = O=C(O)CN1CCN(CC(=O)O)CCN(CC(=O)*)CCN(CC(=O)O)CC1; Ahx = NCCCCCC(=O)O

Experiments:
RAJI tumors = assay: PET/CT in mice bearing RAJI xenografts given anti-CD19 CAR T cells; assay type: in vivo, mouse
Method: Mice bearing subcutaneous RAJI xenografts and administered anti-CD19 CAR T cells were imaged using ^64Cu-GRIP B PET/CT. Peripheral blood mononuclear cells were obtained from normal blood donor leukoreduction filters (Vitalant Blood Services). CD4+ and CD8+ T-cells were isolated via magnetic bead selection, activated with anti-CD3/CD28 beads, lentivirally transduced with a validated anti-CD19 CAR construct, and expanded in vitro with IL-2. In parallel, mice were injected with 1e6 Raji cells subcutaneously in the right flank. At tumor size of ˜400 mm3 5e6 CAR-expressing T-cells were implanted IV into each mouse. Mice received anti-CD19 CAR T cells or empty CAR Ts. After 6 days, the mice received ^64Cu-GRIP B (˜300 uCi/mouse) and were imaged from 0-4 hours post injection. The data depicted in FIG. 7 show images and region of interest analysis gathered at 4 hours post injection.
Additionally, mice bearing orthotopic RAJI xenografts and treated with activated CAR T cell based therapy were imaged using ^64Cu-GRIP B PET/CT. Raji cells (1e5) were administered orthotopically via tail vein injection to encourage seeding in abdominal tissues. This model was evaluated as subcutaneous Raji tumors are known to be intrinsically immunosuppressive.
Peripheral blood mononuclear cells were obtained from normal blood donor leukoreduction filters (Vitalant Blood Services). […]

MC38 = assay: Biodistribution and PET/CT in mice bearing MC38 tumors treated with vehicle or CPI; assay type: in vivo, mouse; details: MC38 cohort, biodistribution
Method: (§1) Next, the biodistribution of ^64Cu-GRIP B and ^64Cu-D-GRIP B was compared in mice bearing MC38 (mouse colorectal cancer) or EMT6 (mouse mammary breast carcinoma) xenografts. The mice were treated with vehicle or anti-PD1 and anti-CTLA4 CPIs following the schema used for the CT26 cohort.

E. coli = assay: PET/CT and biodistribution in E. coli myositis in germline GZMB knockout mice; assay type: in vivo, mouse
Method: To confirm the radiotracer uptake in the abscess was due to granzyme B, imaging studies were performed in germline GZMB knockout mice. The mice received live and heat killed E. Coli and were injected and imaged following the same protocol for wild type mice.

recombinant human GZMB = recombinant human GZMB (Homo sapiens, UniProt P10144); assay: Cleavage of GRIP B / ^64Cu-GRIP B by recombinant human GZMB (rad-HPLC); assay type: biochemical; details: incubation with recombinant human GZMB (400 nM per FIG. 2D legend); product comigrated with cold cleaved DOTA-peptide fragment
Sequence of recombinant human GZMB (P10144 21-247): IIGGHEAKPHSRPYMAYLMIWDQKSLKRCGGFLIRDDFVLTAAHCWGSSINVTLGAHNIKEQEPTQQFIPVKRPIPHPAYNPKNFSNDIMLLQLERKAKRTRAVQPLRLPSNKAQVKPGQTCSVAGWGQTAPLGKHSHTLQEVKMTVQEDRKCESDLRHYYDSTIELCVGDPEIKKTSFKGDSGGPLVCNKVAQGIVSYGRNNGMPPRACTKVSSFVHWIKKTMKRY

S. aureus = assay: PET in S. aureus myositis model; assay type: in vivo, mouse
From the text: Granzyme B responses to other bacterial strains has also been tested. Live or heat killed S. aureus were implanted into the deltoids of mice to understand immune responses on PET. […] One possibility for the difference in response is that granzyme B is not uniformly employed to attack all pathogens, and the immune cells may customize their granzyme response based on the features of the pathogen.

virus = assay: PET and biodistribution in viral pneumonia model; details: biodistribution; including spleen, liver and blood pool
From the text: In collaboration with the Looney lab at UCSF, mice received an intranasal instillation of virus or sham, and were imaged with ^64Cu-GRIP B at 10 days post infection (the time point at which peak recruitment of T cells to the lungs occurs).

M. marinum = assay: PET in M. marinum myositis model; assay type: in vivo, mouse
From the text: Neither M. marinum nor the L. monoctyogenes induced ^64Cu-GRIP B uptake in live bacterial abscesses compared to heat killed controls.

EMT6 = assay: Biodistribution in mice bearing EMT6 tumors treated with vehicle or CPI; assay type: in vivo, mouse; details: EMT6 cohort
Method: as §1

**Q.** Which “uptake in tumor bearing livers” value (RAJI tumors; orthotopic RAJI tumors in liver, CD19 CAR Ts, ROI and post mortem dosimetry) does the source give for `CC[C@H](C)[C@H](NC(=O)[C@H](CCCCN)NC(=O)CNC(=O)[C@H](CC(C)C)NC(=O)[C@H](Cc1ccccc1)NC(=O)[C@H](CCCCN)NC(=O)[C@H](CO)NC(=O)[C@H](Cc1ccccc1)NC(=O)[C@H](Cc1c[nH]c2ccccc12)NC(=O)[C@H](CCC(N)=O)NC(=O)[C@@H](NC(=O)[C@H](Cc1ccccc1)NC(=O)CCCCCNC(=O)CN1CCN(CC(=O)O)CCN(CC(=O)O)CCN(CC(=O)O)CC1)C(C)C)C(=O)N[C@@H](CCC(=O)O)C(=O)N1CCC[C@H]1C(=O)N[C@@H](CC(=O)O)C(=O)N[C@H](C(=O)N[C@@H](CO)C(=O)N[C@@H](CCC(N)=O)C(=O)N[C@H](C(=O)N[C@@H](CCC(N)=O)C(=O)N[C@@H](CC(=O)O)C(=O)N1CCC[C@H]1C(=O)N[C@@H](CC(N)=O)C(=O)N[C@@H](CC(=O)O)C(=O)N[C@@H](CCC(N)=O)C(=O)N[C@@H](Cc1ccc(O)cc1)C(=O)N[C@@H](CCC(=O)O)C(=O)N1CCC[C@H]1C(=O)N[C@@H](Cc1ccccc1)C(=O)O)C(C)C)C(C)C` [^64Cu-GRIP B, metal not drawn] ({DOTA-Ahx}-FVQWFSKFLGKIEPDVSQVQDPNDQYEPF-OH) here?
**A.** Its value is “induce ^64Cu-GRIP B uptake in tumor bearing livers”.

**Q.** And the “detection of granzyme B production from activated CAR T cells” value (RAJI tumors; subcutaneous and orthotopic RAJI, anti-CD19 CAR T vs empty CAR Ts, 4 hours post injection)?
**A.** Its value is “can detect granzyme B production from activated CAR T cells”.

**Q.** And the “tumoral uptake after CPI compared to controls” value (MC38)?
**A.** Its value is “significant increase”.

**Q.** What about the “uptake in infected muscle, GZMB knockout compared to wild type” value (E. coli; PET/CT and biodistribution) of the same compound?
**A.** Its value is “lower”.

**Q.** What about the “difference in tracer uptake between normal muscle, live and heat killed E. Coli treated muscle” value (E. coli; knockout strain) of the same compound?
**A.** Its value is “negligible difference”.

**Q.** What about the “time to conversion to one radiolabeled product” value (recombinant human GZMB) of the same compound?
**A.** Its value is no more than 30 min.

**Q.** And the “granzyme B response in live bacterial abscess compared to that of E. coli” value (S. aureus; S. aureus)?
**A.** The value was “more modest granzyme B response”.

**Q.** And the “uptake in live bacterial abscess versus heat killed abscess” value (S. aureus; S. aureus)?
**A.** The value was “significantly higher”.

**Q.** And the “time course of radiotracer uptake” value (S. aureus; S. aureus deltoid implant)?
**A.** Its value is “rising rapidly from 0-6 hours post injection and plateauing from 6-24 hours”.

**Q.** What about the “relative radiotracer uptake per organ, viral infection” value (virus) of the same compound?
**A.** Its value is “higher radiotracer uptake in numerous tissues”.

**Q.** And the “radiotracer uptake compared to normal muscle” value (M. marinum)?
**A.** The value was “significant increase”.

**Q.** What about the “uptake in live bacterial abscesses compared to heat killed controls” value (M. marinum) of the same compound?
**A.** Its value is “did not impact”.

**Q.** And the “tumoral uptake after CPI compared to controls” value (EMT6)?
**A.** The value was “significant increase”.
